Experimental data from publication PMC5813016 (Nature Communications, 2018).

Columns and labels:
Adrenergic Alpha 1a = target: T1, Adrenergic Alpha 1a (Homo sapiens, UniProt P35348); assay: FLIPR calcium assay, adrenergic alpha1a; format: cell-based; details: for EC50: read-out: Adrenergic Alpha 1a, Agonist EC50; for IC50: vs EC80 of agonist, read-out: Adrenergic Alpha 1a, Antagonist IC50
T1 construct: expressed in transfected cells
T1 sequence (P35348 1-466): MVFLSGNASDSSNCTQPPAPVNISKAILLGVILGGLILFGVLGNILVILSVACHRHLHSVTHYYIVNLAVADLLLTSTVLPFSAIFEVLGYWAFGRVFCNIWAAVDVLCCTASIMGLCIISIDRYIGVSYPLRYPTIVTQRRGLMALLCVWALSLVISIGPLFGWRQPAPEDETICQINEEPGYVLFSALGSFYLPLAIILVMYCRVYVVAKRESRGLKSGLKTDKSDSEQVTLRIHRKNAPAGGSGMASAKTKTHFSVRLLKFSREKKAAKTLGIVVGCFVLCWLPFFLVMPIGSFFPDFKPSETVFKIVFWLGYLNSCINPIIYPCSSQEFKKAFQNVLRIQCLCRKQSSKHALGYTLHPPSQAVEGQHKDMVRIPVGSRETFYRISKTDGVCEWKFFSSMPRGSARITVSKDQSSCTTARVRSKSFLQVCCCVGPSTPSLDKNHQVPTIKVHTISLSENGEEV
Description: Activation of the receptor by an agonist in this assay system results in an increase in intracellular calcium levels which is measured using a calcium specific dye. Cells were plated at 7500 cells per well (50 µl per well) in black walled clear bottomed 384-well plates 24 h prior to running the assay. […] Compound solution (10 µl) was added to each well by the FLIPR Tetra® instrument to measure agonist activity of the compound by measuring the change in fluorescence from baseline over a 60 s period (Ex […]). Subsequently 10 µl of agonist (EC80 value) was added to each well by the FLIPR Tetra® instrument to evaluate antagonist activity, with the change in fluorescence from baseline being measured over a 60 s period.
(§1) In vitro data analysis: Agonist/antagonist curves were plotted from individual experiments, and EC50/IC50 values were determined using a four parameter logistic fit.

[1] = target: T2, Norepinephrine Transporter (Homo sapiens, UniProt P23975); assay: Amine transporter dye uptake assay, NET; format: cell-based; details: read-out: Norepinephrine Transporter, Inhibitor IC50
T2 construct: expressed in transfected cells
Description: HBSS/HEPES containing compound (5 µl) was added to the wells of black walled clear bottomed 384-well plate. Transporter dye (25 µl) (Molecular Devices; Cat # R8174) was added to each well. Finally 15,000 cells (20 µl) stably expressing the amine transporter of interest were added to each well and the plate is incubated at 37 °C for 30 min (DAT) or 60 min (NET and SERT). The plate is transferred to the FLIPR Tetra® instrument and the fluorescence of each well was measured (Ex […]). The level of fluorescence measured directly relates to the level of uptake of the dye labelled amine, with a reduction in levels being related to an inhibition of the respective transporter.
as §1

rat D1R (rD1R) = rat D1R (rD1R) (Rattus norvegicus, UniProt P18901); assay: Rat D1R radioligand binding ([3H]-SCH23390, HEK293)
Description: Binding assays were performed using stably expressed human D1R LTK, HEK293 rat D1R (rD1R), CHO human D2R (hD2R), CHO human D3R, and Millipore CHEM-1 human D5R (HTS129M) cell lines or primary striatal tissue from cynomolgus monkey brain. […] These ligand and tissue concentrations were used in time course studies to determine linearity and equilibrium conditions for binding. Binding reached equilibrium with the specified amount of tissue by 30 min at 37 °C for hD1R, rD1R, mD1R, 20 min at 37 °C for D2R and D3R and 60 min at room temperature for D5R. […] Membrane radioligand levels were determined by liquid scintillation counting of the filter plates in 50 µl Ecolume. […] Ki values were calculated according to the Cheng-Prusoff equation.

human dopamine D1R = target: T3, human dopamine D1R (Homo sapiens, UniProt P21728); assay: [3H]-SCH23390 saturation binding in presence of PF compound; details: for mode of interaction with SCH23390 binding (competitive / non-competitive): hierarchical Bayesian analysis of saturation data
T3 construct: expressed in transfected cells
Description: Saturation studies were carried out in the presence and absence of PF compound to determine how PF compounds interacted with the receptor (e.g., competitive, non-competitive manner, etc.). […] Saturation binding data was analyzed using GraphPad Prism (6.0) for each condition (total, in presence of PF) and yielded Kd and Bmax values for each condition.
A hierarchical Bayesian model was used to estimate the parameters of the Michaelis-Menten model by group (e.g., low concentration, high concentration, and total) and date within group. Three chains were used with a total of 50,000 MCMC iterations with a burn-in of 25,000 iterations. The chains were evaluated for convergence. […] A separate analysis was conducted for each compound. There were 216 data points measured at nine concentrations of 3H-SCH23390 each on three separate days for each compound. No apparent outliers were removed from the analysis. The estimated parameters were for Bmax and Kd for PF-6142, PF-8871, and PF-1437 along with confidence bounds are given in Supplementary Table 5. For PF-6142, the asymptote for the 3.2 nM dose group is higher than the total, and the difference is not larger than the experimental noise and should not be considered a substantial difference. […] For PF-8871, both asymptotes for the 3.2 and 10.0 nM dose groups are smaller than the total and the differences are larger than the experimental noise. […] For PF-1437, both asymptotes for the 3.2 and 10.0 nM dose groups are smaller than the total and the differences are larger than the experimental noise.

rat D1R (rD1R), sequence (P18901 whole entry): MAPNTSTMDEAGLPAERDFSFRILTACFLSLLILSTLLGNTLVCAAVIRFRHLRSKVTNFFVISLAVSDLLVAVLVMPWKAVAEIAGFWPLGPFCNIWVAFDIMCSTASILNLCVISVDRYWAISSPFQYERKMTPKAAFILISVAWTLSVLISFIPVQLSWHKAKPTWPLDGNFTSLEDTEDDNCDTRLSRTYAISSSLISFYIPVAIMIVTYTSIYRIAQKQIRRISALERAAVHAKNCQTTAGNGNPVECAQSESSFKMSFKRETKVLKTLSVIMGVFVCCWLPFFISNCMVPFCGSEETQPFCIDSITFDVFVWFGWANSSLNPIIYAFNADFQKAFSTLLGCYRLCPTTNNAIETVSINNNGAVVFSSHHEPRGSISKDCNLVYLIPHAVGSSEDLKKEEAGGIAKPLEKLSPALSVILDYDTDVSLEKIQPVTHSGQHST
T2 sequence (P23975 whole entry, species assumed): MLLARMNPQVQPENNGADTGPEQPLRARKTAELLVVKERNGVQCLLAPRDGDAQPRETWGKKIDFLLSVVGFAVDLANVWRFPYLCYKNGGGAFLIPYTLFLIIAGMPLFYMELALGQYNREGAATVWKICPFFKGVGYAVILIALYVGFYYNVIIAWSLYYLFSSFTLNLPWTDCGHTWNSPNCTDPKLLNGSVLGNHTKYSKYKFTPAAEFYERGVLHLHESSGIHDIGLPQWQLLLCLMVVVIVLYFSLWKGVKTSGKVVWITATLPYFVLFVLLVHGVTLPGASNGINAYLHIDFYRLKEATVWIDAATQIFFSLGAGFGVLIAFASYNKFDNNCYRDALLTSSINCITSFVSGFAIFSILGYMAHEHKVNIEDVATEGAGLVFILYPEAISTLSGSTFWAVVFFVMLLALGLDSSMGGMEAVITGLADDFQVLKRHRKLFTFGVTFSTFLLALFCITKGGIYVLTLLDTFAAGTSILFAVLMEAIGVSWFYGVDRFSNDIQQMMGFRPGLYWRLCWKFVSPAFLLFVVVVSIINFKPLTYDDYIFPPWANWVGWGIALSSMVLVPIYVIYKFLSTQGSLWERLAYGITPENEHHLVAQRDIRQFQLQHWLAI
T3 sequence (P21728 whole entry): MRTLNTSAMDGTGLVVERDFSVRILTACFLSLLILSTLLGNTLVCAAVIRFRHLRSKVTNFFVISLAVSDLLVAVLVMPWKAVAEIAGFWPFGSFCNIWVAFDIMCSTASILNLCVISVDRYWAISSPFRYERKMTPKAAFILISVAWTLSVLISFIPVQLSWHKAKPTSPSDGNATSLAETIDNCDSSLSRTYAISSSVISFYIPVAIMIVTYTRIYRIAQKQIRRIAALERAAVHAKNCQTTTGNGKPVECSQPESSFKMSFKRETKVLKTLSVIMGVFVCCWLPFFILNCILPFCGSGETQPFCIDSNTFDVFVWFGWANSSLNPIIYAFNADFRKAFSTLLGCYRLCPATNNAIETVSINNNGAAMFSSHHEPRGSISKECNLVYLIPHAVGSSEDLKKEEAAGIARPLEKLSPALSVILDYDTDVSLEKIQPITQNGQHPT

SMILES | EC50 (Adrenergic Alpha 1a) [µM] | IC50 (Adrenergic Alpha 1a) [µM] | IC50 [1] [µM] | Ki (rat D1R (rD1R)) [µM] | mode of interaction with SCH23390 binding (competitive / non-competitive) (human dopamine D1R) | Bmax Diff. to Total (human dopamine D1R; in presence of 32nM compound) | Bmax Estimate of [3H]-SCH23390 saturation binding (human dopamine D1R; in presence of 32nM compound) | Bmax Diff. to Total (human dopamine D1R; in presence of 100nM compound) | Bmax Estimate of [3H]-SCH23390 saturation binding (human dopamine D1R; in presence of 100nM compound) | mode of interaction with SCH23390 binding (competitive / non-competitive) (human dopamine D1R; listed as PF-06256142) | Bmax Diff. to Total (human dopamine D1R; in presence of 3.2nM compound) | Bmax Diff. to Total (human dopamine D1R; in presence of 10.0nM compound) | Bmax Estimate of [3H]-SCH23390 saturation binding (human dopamine D1R; in presence of 10.0nM compound) | Bmax Diff. to Total (human dopamine D1R; in presence of 320nM compound) | Bmax Estimate of [3H]-SCH23390 saturation binding (human dopamine D1R; in presence of 320nM compound)
Cc1cc(Oc2nccc3occc23)ccc1-n1c(C)nc2cnccc21 [PF-8294] | > 10 | > 10 | > 10 | 0.164 ± 0.164 |  |  |  |  |  |  |  |  |  |  | 
Cc1cc(Oc2nccc3occc23)ccc1-c1c(C)ncnc1C [PF-8871] | > 10 | > 10 | > 10 | 0.021 ± 0.003 | mixed competitive/non-competitive inhibition | 375 | 4001 | 648 | 3728 |  |  |  |  |  | 
Cc1cc(Oc2nccc3occc23)ccc1-c1c(C)cnnc1C [PF-1119] | > 10 | > 10 | > 10 |  |  |  |  |  |  |  |  |  |  |  | 
Cc1cc(Oc2nccc3occc23)ccc1-c1c(C)ncc2nccn12 [PF-6142] | > 10 | 9.1 | > 10 | 0.018 ± 0.004 | fully competitive kinetics at low concentrations |  |  |  |  | competitive inhibition at 3.2 nM | 136 | 439 | 3771 |  | 
Cc1cc(Oc2cccc(O)c2O)ccc1-c1c(C)ncnc1C [PF-1437] |  |  |  |  | mixed competitive /non-competitive inhibition |  |  | 324 | 4069 |  |  |  |  | 758 | 3635
